Source: ChEMBL document CHEMBL1208731, “A novel, broad-spectrum anticancer compound containing the imidazo[4,5-e][1,3]diazepine ring system” (Bioorg Med Chem Lett, 2010)
Active and inactive are the calls of the source. No cut-off for these calls is given here.

Assays:
Assay type in all cases: functional, cell-based
NCI-H460 = experiment: Cytotoxicity against human H460 cells after 72 hrs; details: NCI-H460, 72 h
A549 = experiment: Cytotoxicity against human A549 cells after 72 hrs; details: A549, 72 h
MCF7 = experiment: Cytotoxicity against human MCF7 cells after 72 hrs; details: MCF7, 72 h
PC-3 = experiment: Cytotoxicity against human PC3 cells after 72 hrs; details: PC-3, 72 h
OVCAR-3 = experiment: Cytotoxicity against human OVCAR-3 cells after 72 hrs

CCNc1nc(N)c2ncnc-2c(N)n1
IC50 (NCI-H460): 22 µM
IC50 (A549): 38 µM
IC50 (MCF7): > 800 µM
IC50 (PC-3): > 800 µM
Activity (OVCAR-3): Active
